Results taken from ChEMBL document CHEMBL3351754, “Rational use of plasma protein and tissue binding data in drug design” (J Med Chem, 2014).

Columns and labels:
[1] = Fraction unbound in 100% human serum; assay type: ADME, cell-free
[2] = Fraction unbound in mouse brain

With `O=C(O)[C@H](Oc1cccc(C(F)(F)F)c1)c1ccc(Cl)cc1` [MBX-102 ACID FORM] as the compound, how does the fraction unbound [1] read?
The fraction unbound was 0.009.

For `CCCC(C)(COC(N)=O)COC(N)=O` [MEPROBAMATE], which fraction unbound [2] is on record?
Its fraction unbound is 0.76.
